By pIC50 is commonly meant the IC50 on a negative log10 scale, so that one unit is a factor of ten. Read a low pIC50 as a high IC50.

pIC50: −log10 of the molar value.

This assay has as its target T1, LIMK2 (Homo sapiens, UniProt P53671).
T1 construct: His tag (histidine-tagged; pFastBacHT vector); made in house; host or cells: Sf9 insect cells (BAC-to-BAC baculovirus system)
Nature of the assay: In vitro LIMK2 inhibition assay (33P incorporation into myelin basic protein flash plates). The class given is biochemical. Here is the method: Using the procedures described herein and methods known in the art, the additional compounds listed below in Table 1 were prepared. The LIMK2 IC50 data that is provided below for some of the compounds was determined using the assay described in Example 32.
An in vitro assay used to identify LIMK2 inhibitors was developed. The analytical readout was the incorporation of ^33P from ATP substrate into immobilized myelin basic protein coated flash plates (Perkin Elmer Biosciences), which were counted on a scintillation counter equipped with a plate reader (TopCount, Packard Bioscience, Meriden, Conn.). Using 384 well flat MBP flashplates, total assay volume was 50 μl. The HTS program utilized a Biomek FX for dilution.
For each assay, the ingredients and conditions were as follows: 200 ng of enzyme was incubated in assay buffer (1× assay buffer contains 30 mM HEPES (pH 8.0), 5 mM DTT, and 10 mM MgCl2), 10 μM ATP, 0.2 μCi [gamma-^33P]-ATP and 10 μM of potential inhibitory compound. The reaction was incubated at room temperature for 60 minutes, washed 3 times with 75 μl of stop/wash buffer (1× stop/was buffer contains 50 mM EDTA and 20 mM Tris (pH 7.4)), and then the plates were read on the scintillation counter. Different concentrations of staurosporine (400 nM, 200 nM, 100 nM and 50 nM; purchased from BIOMOL (Plymouth Meeting, Pa.)) were used as controls on each plate.

T1 sequence (P53671 whole entry): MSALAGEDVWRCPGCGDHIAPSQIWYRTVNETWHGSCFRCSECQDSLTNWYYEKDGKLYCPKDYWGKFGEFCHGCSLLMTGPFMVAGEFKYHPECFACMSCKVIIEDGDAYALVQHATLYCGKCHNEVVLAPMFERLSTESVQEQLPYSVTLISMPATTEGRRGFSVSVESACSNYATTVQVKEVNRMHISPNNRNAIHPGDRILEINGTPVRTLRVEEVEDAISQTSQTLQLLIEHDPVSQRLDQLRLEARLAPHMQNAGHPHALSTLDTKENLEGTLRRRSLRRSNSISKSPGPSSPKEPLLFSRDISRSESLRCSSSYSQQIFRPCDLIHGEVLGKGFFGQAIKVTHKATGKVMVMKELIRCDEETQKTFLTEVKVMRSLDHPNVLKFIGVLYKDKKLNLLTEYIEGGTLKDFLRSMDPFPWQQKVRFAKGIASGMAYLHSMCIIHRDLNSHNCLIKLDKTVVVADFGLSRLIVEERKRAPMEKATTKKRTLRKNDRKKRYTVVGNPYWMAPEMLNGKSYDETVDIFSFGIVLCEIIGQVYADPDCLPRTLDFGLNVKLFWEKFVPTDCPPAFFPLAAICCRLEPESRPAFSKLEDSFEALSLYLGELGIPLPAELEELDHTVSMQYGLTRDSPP

Regarding `Cc1c[nH]c2ncnc(N3CCC(CN)(C(=O)Nc4cccc(C(C)(C)C)c4)CC3)c12` [4-(aminomethyl)-N-(3-tert-butylphenyl)-1-(5-methyl-7H-pyrrolo[2,3-d]pyrimidin-4-yl)piperidine-4-carboxamide], the negative-log IC50 (pIC50) was greater than 6.60.
With `C=CCC1(C(=O)Nc2cccc(Oc3ccc(F)cc3)c2)CCN(c2ncnc3[nH]cc(C)c23)CC1` [4-allyl-N-(3-(4-fluorophenoxy)phenyl)-1-(5-methyl-7H-pyrrolo[2,3-d]pyrimidin-4-yl)piperidine-4-carboxamide] the figure was greater than 6.60.
Turning to `C=CCC1(C(=O)Nc2cccc(Br)c2)CCN(c2ncnc3[nH]cc(C)c23)CC1` [4-allyl-N-(3-bromophenyl)-1-(5-methyl-7H-pyrrolo[2,3-d]pyrimidin-4-yl)piperidine-4-carboxamide], the pIC50 was greater than 6.60.
In turn, `C=CCC1(C(=O)Nc2cccc(F)c2)CCN(c2ncnc3[nH]cc(C)c23)CC1` [4-allyl-N-(3-fluorophenyl)-1-(5-methyl-7H-pyrrolo[2,3-d]pyrimidin-4-yl)piperidine-4-carboxamide] had a pIC50 greater than 6.60.
`C=CCC1(C(=O)Nc2cccc(OC)c2)CCN(c2ncnc3[nH]cc(C)c23)CC1` [4-allyl-N-(3-methoxyphenyl)-1-(5-methyl-7H-pyrrolo[2,3-d]pyrimidin-4-yl)piperidine-4-carboxamide]: the pIC50 is greater than 6.60.
The result for `C=CCC1(C(=O)Nc2cccc(C(C)(C)C)c2)CCN(c2ncnc3[nH]cc(C)c23)CC1` [4-allyl-N-(3-tert-butylphenyl)-1-(5-methyl-7H-pyrrolo[2,3-d]pyrimidin-4-yl)piperidine-4-carboxamide] reads greater than 6.60.
With `Cc1c[nH]c2ncnc(N3CCC(C)(C(=O)Nc4cccc(C(F)(F)F)c4)CC3)c12` [4-methyl-1-(5-methyl-7H-pyrrolo[2,3-d]pyrimidin-4-yl) N-(3-(trifluoromethyl)phenyl)piperidine-4-carboxamide] the figure was greater than 6.60; with `Cc1c[nH]c2ncnc(N3CCC(C)(C(=O)Nc4cccc(S(=O)(=O)N5CCOCC5)c4)CC3)c12` [4-methyl-1-(5-methyl-7H-pyrrolo[2,3-d]pyrimidin-4-yl)-N-(3-(morpholinosulfonyl)phenyl)piperidine-4-carboxamide], greater than 6.60; with `Cc1cccc(NC(=O)C2(C)CCN(c3ncnc4[nH]cc(C)c34)CC2)c1` [4-methyl-1-(5-methyl-7H-pyrrolo[2,3-d]pyrimidin-4-yl)-N-m-tolylpiperidine-4-carboxamide], greater than 6.60.
With `Cc1c[nH]c2ncnc(N3CCC(C)(C(=O)Nc4ccccc4)CC3)c12` [4-methyl-1-(5-methyl-7H-pyrrolo[2,3-d]pyrimidin-4-yl)-N-phenylpiperidine-4-carboxamide] the figure was greater than 6.60.
In the case of `Cc1c[nH]c2ncnc(N3CCC(CNC(=O)[C@@H](N)CCCN)(C(=O)Nc4cccc(OC(=O)N(C)C)c4)CC3)c12` [(S)-3-(4-((2,5-diaminopentanamido)methyl)-1-(5-methyl-7H-pyrrolo[2,3-d]pyrimidin-4-yl)piperidine-4-carboxamido)phenyl dimethylcarbamate], the pIC50 is greater than 6.60.
The result for `Cc1c[nH]c2ncnc(N3CCC(CNC(=O)[C@@H](N)Cc4c[nH]cn4)(C(=O)Nc4cccc(OC(=O)N(C)C)c4)CC3)c12` [(S)-3-(4-((2-amino-3-(1H-imidazol-4-yl)propanamido)methyl)-1-(5-methyl-7H-pyrrolo[2,3-d]pyrimidin-4-yl)piperidine-4-carboxamido)phenyl dimethylcarbamate] reads greater than 6.60; that for `Cc1c[nH]c2ncnc(N3CCC(CNC(=O)[C@@H](N)CO)(C(=O)Nc4cccc(OC(=O)N(C)C)c4)CC3)c12` [(S)-3-(4-((2-amino-3-hydroxypropanamido)methyl)-1-(5-methyl-7H-pyrrolo[2,3-d]pyrimidin-4-yl)piperidine-4-carboxamido)phenyl dimethylcarbamate], greater than 6.60.
The result for `Cc1c[nH]c2ncnc(N3CCC(C)(C(=O)Nc4cccc(CC(=O)N(C)C)c4)CC3)c12` [N-(3-(2-(dimethylamino)-2-oxoethyl)phenyl)-4-methyl-1-(5-methyl-7H-pyrrolo[2,3-d]pyrimidin-4-yl)piperidine-4-carboxamide] reads greater than 6.60; that for `Cc1c[nH]c2ncnc(N3CCC(C)(C(=O)Nc4cccc(Oc5ccc(F)cc5)c4)CC3)c12` [N-(3-(4-fluorophenoxy)phenyl)-4-methyl-1-(5-methyl-7H-pyrrolo[2,3-d]pyrimidin-4-yl)piperidine-4-carboxamide], greater than 6.60; that for `Cc1c[nH]c2ncnc(N3CCC(C)(C(=O)Nc4cccc(S(=O)(=O)NC(C)C)c4)CC3)c12` [N-(3-(N-isopropylsulfamoyl)phenyl)-4-methyl-1-(5-methyl-7H-pyrrolo[2,3-d]pyrimidin-4-yl)piperidine-4-carboxamide], greater than 6.60.
In turn, `Cc1c[nH]c2ncnc(N3CCC(C)(C(=O)Nc4ccc(F)c(Br)c4)CC3)c12` [N-(3-bromo-4-fluorophenyl)-4-methyl-1-(5-methyl-7H-pyrrolo[2,3-d]pyrimidin-4-yl)piperidine-4-carboxamide] had a pIC50 greater than 6.60.
With `CC1(C(=O)Nc2cccc(Br)c2)CCN(c2ncnc3[nH]cc(Cl)c23)CC1` [N-(3-bromophenyl)-1-(5-chloro-7H-pyrrolo[2,3-d]pyrimidin-4-yl)-4-methylpiperidine-4-carboxamide] the figure was greater than 6.60; with `Cc1c[nH]c2ncnc(N3CCC(C)(C(=O)Nc4cccc(Br)c4)CC3)c12` [N-(3-bromophenyl)-4-methyl-1-(5-methyl-7H-pyrrolo[2,3-d]pyrimidin-4-yl)piperidine-4-carboxamide], greater than 6.60; with `Cc1c[nH]c2ncnc(N3CCC(C)(C(=O)Nc4cccc(NC(=O)C(C)C)c4)CC3)c12` [N-(3-isobutyramidophenyl)-4-methyl-1-(5-methyl-7H-pyrrolo[2,3-d]pyrimidin-4-yl)piperidine-4-carboxamide], greater than 6.60.
The result for `COc1ccc(NC(=O)C2(C)CCN(c3ncnc4[nH]cc(C)c34)CC2)cc1` [N-(4-methoxyphenyl)-4-methyl-1-(5-methyl-7H-pyrrolo[2,3-d]pyrimidin-4-yl)piperidine-4-carboxamide] reads greater than 6.60; that for `COC(=O)c1nnn(CC2(C(=O)Nc3cccc(OC(=O)N(C)C)c3)CCN(c3ncnc4[nH]cc(C)c34)CC2)c1C(=O)OC` [dimethyl 1-((4-(3-(dimethylcarbamoyloxy)phenylcarbamoyl)-1-(5-methyl-7H-pyrrolo[2,3-d]pyrimidin-4-yl)piperidin-4-yl)methyl)-1H-1,2,3-triazole-4,5-dicarboxylate], greater than 6.60.

These data come from US8450332B2, “LIMK2 inhibitors, compositions comprising them, and methods of their use” (Lexicon Pharmaceuticals, Inc., priority 2008, dated 2013).
